One series has as its target T1, GCase (Mus musculus, UniProt P17439).
T1 construct: Liver, spleen, lung, and brain tissues were removed; from tissue; host or cells: brain, spleen, liver, lung of C57BL/6 mice
T1 sequence (P17439 20-515): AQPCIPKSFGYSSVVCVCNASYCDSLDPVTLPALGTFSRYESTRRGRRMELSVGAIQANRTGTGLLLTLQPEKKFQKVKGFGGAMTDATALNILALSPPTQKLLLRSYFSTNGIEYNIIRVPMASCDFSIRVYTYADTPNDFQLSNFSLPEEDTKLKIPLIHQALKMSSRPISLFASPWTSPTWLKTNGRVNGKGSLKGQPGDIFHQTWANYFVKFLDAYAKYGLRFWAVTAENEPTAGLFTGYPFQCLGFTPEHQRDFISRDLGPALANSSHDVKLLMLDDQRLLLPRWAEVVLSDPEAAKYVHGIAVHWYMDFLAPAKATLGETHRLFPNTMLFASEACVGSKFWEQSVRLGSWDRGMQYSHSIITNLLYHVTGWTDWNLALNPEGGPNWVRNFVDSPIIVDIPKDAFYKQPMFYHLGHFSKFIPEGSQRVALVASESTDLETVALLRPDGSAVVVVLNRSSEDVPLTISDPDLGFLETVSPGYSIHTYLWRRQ
In words: GCase enhancement in tissues of orally dosed mice. It is filed as in vivo, mice (C57BL/6). The conditions noted are these: for GCase increase: nine doses over 2 weeks, 24-hour washout. The method, then: (§1) The ability of orally administered test compounds (the hydrochloride salt form of Compound A and Compound B) to elevate GCase levels as compared to reference compound, IFG-tartrate, was assessed in mice. […] Seven animals were used per dose. The dosing solutions were prepared in water. Compounds were administered over 2 weeks as follows: week 1, Mon-Fri (On), Sat-Sun (Off); week 2, Mon-Thu (On); necropsy on Friday. Thus, a total of 9 doses (dosing solutions prepared fresh every day) were given to each mouse, with a 24-hour washout between the last dose and necropsy.
(§2) Plasma was collected by spinning blood at 2700 g for 10 minutes at 4° C. Liver, spleen, lung, and brain tissues were removed, washed in cold PBS, blotted dry, flash frozen on dry ice, and stored at −80° C. until analysis. GCase levels were measured by homogenizing approximately 50 mg tissue in 500 μL McIlvane (MI) buffer (100 mM sodium citrate, 200 mM sodium phosphate dibasic, 0.25% sodium taurocholate, and 0.1% Triton X-100, pH 5.2) at pH 5.2 for 3-5 seconds on ice with a micro homogenizer. Homogenates were then incubated at room temperature without and with 2.5 mM conduritol-B-epoxide (CBE) for 30 min. Finally, 3.7 mM 4-methylumbeliferryl-β-glucoside (4-MUG) substrate was added and incubated at 37° C. for 60 min. Reactions were stopped by addition of 0.4 M glycine, pH 10.6. Fluorescence was measured on a plate reader for 1 sec/well using 355 nm excitation and 460 nm emission. Total protein was determined in lysates using the MicroBCA kit according to the manufacturer's instructions. A 4-methylumbelliferone (4-MU) standard curve ranging from 1.0 nM to 50 μM was run in parallel for conversion of raw fluorescence data to absolute GCase activity (in the presence and absence of CBE) and expressed as nanomoles of 4-MU released per milligram of protein per hour (nmol/mg protein/hr). GCase levels and protein levels were calculated using Microsoft Excel (Redmond, Wash.) and GraphPad Prism version 4.02.

Series [1] is described as follows: Compound concentration in brain, spleen and plasma samples of GCase enhancement study. It is filed as in vivo, mice (C57BL/6). Particulars: nine doses. The method, then:
as §1, §2

Setting [2] is: mice, nine p.o. doses over 2 weeks, result in words.

With `O[C@@H]1[C@@H](CCl)CNC[C@H]1O` [Compound B, (3R,4R,5S)-5-(chloromethyl)piperidine-3,4-diol], the GCase increase is given as 2.3 -fold on GCase (brain, 10 mg/kg (free base equivalent) p.o.); 3.5 -fold at GCase (brain, 100 mg/kg (free base equivalent) p.o.); 1.4 -fold on GCase (spleen, 10 mg/kg (free base equivalent) p.o.); 2.2 -fold at GCase (spleen, 100 mg/kg (free base equivalent) p.o.). For the same compound, the “GCase enhancement at lower doses compared to IFG-tartrate” value at GCase (setting [2]) is “unexpectedly greater than that observed with IFG-tartrate even when far lower doses”. At GCase (setting [2]), the “GCase enhancement in brain, spleen, liver and lung compared to control or IFG-tartrate” value was “statistically significant greater GCase enhancement in brain, spleen, liver and lung as compared to mice administered control or IFG-tartrate”. Also, the “Concentration in GCase assays after dilution (value in parenthesis)” value in series [1] (brain sample, 10 mg/kg p.o.) came out at 0.9 nM; in series [1] (brain sample, 100 mg/kg p.o.) it was 7.6 nM; in series [1] (spleen sample, 10 mg/kg p.o.), 2.4 nM; in series [1] (spleen sample, 100 mg/kg p.o.), 8 nM.

The record behind these values is patent US8940766B2, “Methods for preventing and/or treating lysosomal storage disorders” (Amicus Therapeutics, Inc., priority 2009, dated 2015).
